Common to all, as to assay: NCI anticancer screen, dose series, 48 h
The test system of test [1] is UO-31 renal.
For test [2], the system named is MOLT-4 leukemia.
Test [3] deals with HOP-62 NSCLC.
Test [4] deals with HCC-2998 colon.
Test [5] relates to SNB-19 CNS.
The test system of test [6] is SF-539 CNS.
Test [7] deals with HCT-116 colon.
Test [8] has as its system MDA-MB-435.
Test [9] concerns EKVX NSCLC.
Test [10] has as its system MDA-MB-231 breast.

SMILES strings stand for the structures.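 Protocol summary: plate cells (96-well), add compound at 5 concentrations, incubate 48 h, interpolate endpoints linearly. TGI is the concentration that stops growth completely.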 Where a SMILES comes first, the peptide text is derived from it. The star is where a group is joined. Boc = CC(C)(C)OC(=O)* A value given as a limit tells only on which side of the number the result lay.

Consider `Cc1c(Cl)c2ccccc2n1S(=O)(=O)c1ccccc1`, for which the TGI in test [1] is 85.6 µM; in test [2], more than 100 µM; in test [3] it was more than 100 µM; in test [4], more than 100 µM; in test [5] it was more than 100 µM; in test [6], more than 100 µM. The compound also gave a TGI in test [7] of more than 100 µM.
`COC(=O)/C=C\n1c(C)cc(=O)[nH]c1=O`: the TGI in test [8], in [1], in [2], in test [3], in [4] and in [5] was more than 100 µM each time. Moreover, the TGI in [6], in [7] and in test [9] was more than 100 µM throughout.
Take `CC(C)/C(Cl)=N\OC(=O)Nc1ccccc1F`: the TGI in [10] is 22.6 µM; in test [1], 29.6 µM; in test [2] it was 12.4 µM; in test [3], more than 55.6 µM; in test [4], 19.6 µM; in [5] it was more than 57.3 µM. Also, the figures for the TGI in test [6], in [7] and in test [9] were 32.1 µM, 23.9 µM and 30.7 µM, respectively.
Regarding `CC(C)(C)N=NNc1cn(C2OC(CO)C(O)C2O)c(=O)[nH]c1=O` (centres undefined), the TGI in test [1], in test [2], in [3], in [4], in [5] and in test [7] was more than 100 µM each time. The compound also registered a TGI in test [9] of more than 100 µM.
`CN1CCCC2(CCCc3ccccc32)C1` (centres undefined): the TGI in test [1], in [2], in test [3], in test [4], in test [6] and in test [7] was more than 100 µM in each case. Also, the TGI in [9] was more than 100 µM.
On to `CCc1cc(Cc2cc(Cl)c(NC(=O)C(=O)C3NC(=O)NC3=O)c(CC)c2)cc(Cl)c1NC(=O)C(=O)C1NC(=O)NC1=O` (centres undefined), for which the TGI in [1], in [2], in test [3], in test [4], in [5] and in [6] was more than 100 µM each time. For the same compound, the TGI was 94.8 µM in [7] and more than 100 µM in [9].
Turning to `Cc1c(Cl)nc(Nc2nc3ccccc3[nH]2)nc1Cl`, the TGI in test [8], in test [1], in [2], in test [5], in test [6] and in test [7] was more than 100 µM each time. For the same compound, the TGI in test [9] turned out to be 84.5 µM.
`Cc1ccc(S(=O)(=O)N/N=C(\c2nc3ccc(Cl)cc3[nH]c2=O)C(O)c2cccc([N+](=O)[O-])c2)cc1` (centres undefined): the TGI in test [1], in test [2], in test [3], in [4], in test [5] and in [6] was more than 100 µM throughout. Moreover, the TGI in [7] and in [9] was more than 100 µM each time.
Consider `CCOC(=O)c1cc(-c2cc(OC)c(OC)c([N+](=O)[O-])c2)c([N+](=O)[O-])n1C`, for which the TGI was 4.72 µM in test [8]; more than 10 µM in [1]; more than 10 µM in test [2]; more than 10 µM in test [4]; more than 10 µM in [5]; more than 10 µM in test [6]. Also, the TGI in test [7] and in [9] was more than 10 µM throughout.
Turning to `Clc1ccc(SC(/C=C/NNC2=NC(c3ccccc3)C(c3ccccc3)=NN2)c2ccccc2)cc1` (centres undefined), the TGI is 38.8 µM in test [1]; 38.4 µM in test [2]; more than 100 µM in test [3]; 44.3 µM in test [4]; more than 100 µM in [5]; more than 100 µM in test [6]. Also, the figures for the TGI in [7] and in test [9] were 92 µM and more than 100 µM, respectively.
With `COc1ccc(-c2cc(=O)c3cc4c(cc3[nH]2)OCO4)cc1OC`, the TGI in [1], in test [2], in [3], in test [4], in [5] and in test [6] was more than 100 µM throughout. For the same compound, the TGI in test [7] and in test [9] was more than 100 µM throughout.
On to `NC(N)=N/N=C/c1nc2n(c1[N+](=O)[O-])CCS2`, for which the TGI in [8] was 74.1 µM; in test [10], more than 100 µM; in test [1], more than 100 µM; in test [2] it was 63.7 µM; in [3] it was more than 100 µM; in [5] it was more than 100 µM. For the same compound, the TGI in test [6] is more than 100 µM; in test [7] it was 54.1 µM; in test [9], 76.5 µM.
Take `O=c1[nH]c(=O)n(C2OC(COP(=O)(O)OP(=O)(O)OC3OC(CO)C(O)C(O)C3O)C(O)C2O)cc1F` (centres undefined): the TGI in [1] was 2.29 µM; in [2] it was more than 100 µM; in test [3], 4.3 µM; in test [4] it was more than 100 µM; in test [5], more than 100 µM; in test [6], 1.49 µM. Moreover, the TGI in test [7] is 1.23 µM; in test [9], more than 100 µM.
As for `O=S(=O)(CCBr)CCBr`, the TGI in test [1] was more than 100 µM; in [2] it was 7.75 µM; in test [3], 43.1 µM; in [4] it was 18.1 µM; in [5], 35 µM; in test [6], 18.6 µM. This compound came in with a TGI in test [7] of 10.5 µM.
With `O=S(=O)(c1ccccc1)n1c2ccc(Br)cc2c2nc3ccccc3nc21`, the TGI in test [8], in test [10], in test [1], in test [2], in test [3] and in [4] was more than 100 µM in each case. Besides, the TGI in test [5] and in [7] was more than 100 µM in each case.
Regarding `O=C(c1ccc(Cl)cc1)c1ccc(OCCCOc2ccc(C(=O)c3ccc(Cl)cc3)cc2)cc1`, the TGI in test [2], in test [3], in [4], in test [5], in test [6] and in test [7] was more than 100 µM in each case. For the same compound, in test [9], the TGI was more than 100 µM.
For the compound `O=C1Nc2ccccc2C12CCNC2Cc1ccccc1` (centres undefined), the TGI in test [2], in test [3], in test [4], in test [5], in test [6] and in test [7] was more than 100 µM throughout. This compound yielded a TGI in [9] of more than 100 µM.
Take `CCCSc1ccc2[nH]c(N3C(=O)/C(=C/c4ccco4)N=C3c3ccccc3)cc2c1`: the TGI is 28 µM in test [8]; more than 50 µM in test [1]; more than 50 µM in [2]; more than 50 µM in test [3]; more than 50 µM in [4]; more than 50 µM in test [5]. In addition, the TGI in [6] is 25 µM; in [7], more than 50 µM; in [9], more than 50 µM.
Take `Cc1nc(Nc2ccc(Cl)cc2)sc1C(=O)NNc1ccc([N+](=O)[O-])cc1[N+](=O)[O-]`: the TGI in test [1] worked out at 27.2 µM; in test [2] it was 46.7 µM; in test [3], 25.2 µM; in test [4], 30 µM; in [5], 30.4 µM; in test [6], 32 µM. Besides, the TGI in test [7] amounted to 26.7 µM; in test [9] it was 32.6 µM.
Turning to `COC(=O)/C=C1/CCC(C(=O)OC)N1` (centres undefined), the TGI in test [1], in [2], in test [3], in test [4], in [5] and in [6] was more than 100 µM throughout. Also, the TGI in test [7] and in test [9] was more than 100 µM each time.
Turning to `O=C(/N=C/c1c(O)c2ccccc2oc1=O)Nc1ccccc1`, the TGI in [1], in test [2], in test [4], in [5], in [6] and in test [7] was more than 100 µM in each case. For the same compound, the TGI in [9] was more than 100 µM.
For the compound `COC(=O)[C@@H]1[C@@H](c2cccc(Cl)c2)[C@H](C(=O)OC)C2(C[C@@]1(C)O)NCCS2` (some centres undefined), the TGI in test [8] is more than 100 µM; in [10] it was more than 100 µM; in test [1], more than 100 µM; in test [2], 42.1 µM; in [3], more than 100 µM; in [5], more than 100 µM. The TGI in test [6], in test [7] and in test [9] was more than 100 µM throughout.
Take `COc1cc2c(cc1OC)C(C(CO)CO)N(CC(O)CCl)CC2` (centres undefined): the TGI in [1], in test [2], in test [3], in test [4], in test [5] and in [6] was more than 100 µM in each case. Further, the TGI in [9] is more than 100 µM.
On to `CC(=O)[C@@]1(C)CC2(CCN(C)CC2)OC1C` (some centres undefined), for which the TGI in test [8], in test [10], in test [1], in test [2], in test [3] and in test [5] was more than 100 µM in each case. Also, the TGI in test [6], in [7] and in test [9] was more than 100 µM in each case.
With `COc1ccc2c(c1)N1CCc3cc(OC)c(OC)cc3C1C2` (centres undefined), the TGI in test [1], in [2], in [3], in test [4], in [5] and in test [6] was more than 100 µM each time. The compound further gave a TGI in test [9] of more than 100 µM.
Turning to `CCC12CCCN(Cc3ccccc3)C1c1c([nH]c3ccccc13)C(C(=O)OC)C2` (centres undefined), the TGI in test [8], in test [10], in test [2], in [3], in test [4] and in test [5] was more than 10 µM in each case. The TGI in test [6] and in [7] was more than 10 µM in each case.
As for `Cc1cccc2c(=O)c([Se]c3coc4c(C)cccc4c3=O)coc12`, the TGI was 28.7 µM in [1]; more than 100 µM in [2]; 32.9 µM in test [3]; 44.8 µM in test [4]; 47.4 µM in test [5]; 29.9 µM in [6]. Also, the TGI amounted to 17.2 µM in test [7] and 33.3 µM in [9].
Regarding `C[C@]12CCC(=O)C=C1CC[C@@H]1[C@@H]2[C@@H](O)C[C@@]2(C)[C@H]1CC[C@]2(O)C(=O)COC(=O)COCC(=O)O`, the TGI in test [1], in [2], in test [3], in [4], in test [5] and in [6] was more than 100 µM each time. Besides, the TGI in [7] and in [9] was more than 100 µM in each case.
Consider `COC(=O)C(Cc1c[nH]c2ccccc12)NC(=O)C(Cc1c[nH]c2ccccc12)NC(=O)C(Cc1c[nH]c2ccccc12)NC(=O)C(Cc1c[nH]c2ccccc12)NC(=O)C(Cc1c[nH]c2ccccc12)NC(=O)C(Cc1c[nH]c2ccccc12)NC(=O)OC(C)(C)C` (centres undefined) (Boc-WWWWWW-OMe; configuration not given here), for which the TGI in test [8], in test [10], in test [1], in test [2], in test [3] and in test [4] was more than 100 µM each time. The TGI in test [5] and in [7] was more than 100 µM each time.
For the compound `NC(CCCC(N)P(=O)(O)c1ccccc1)P(=O)(O)c1ccccc1` (centres undefined), the TGI in test [1], in [2], in test [3], in test [4], in test [5] and in test [6] was more than 261 µM throughout. For the same compound, the TGI in [7] and in test [9] was more than 261 µM in each case.
As for `O=C(NCCC1([N+](=O)[O-])CCN(C(=O)c2ccccc2)CC1)c1ccccc1`, the TGI in test [8], in test [10], in test [1], in [2], in [5] and in test [6] was more than 100 µM each time. Besides, the TGI in test [7] and in [9] was more than 100 µM each time.

These data come from PubChem BioAssay (NCI).
